From US20240132458A1, “NLRP3 INFLAMMASOME SMALL-MOLECULE INHIBITOR FOR TREATMENT OF ALZHEIMER'S DISEASE” (AJOU UNIVERSITY INDUSTRY-ACADEMIC COOPERATION FOUNDATION, priority 2021, published 2024) come the findings set out here.

Data set [1] relates to NLRP3 signaling pathway (IL-1β, caspase 1). Kind of data set: Western blot of the NLRP3 signaling pathway. The data set is classed as cell-based, human. To be noted: 10 μM, PMA-differentiated THP-1, LPS/nigericin. As to the method:
Cytoplasmic proteins were extracted using NE-PERTM Nuclear and Cytoplasmic Extraction Reagent (Thermo Fisher Scientific, Inc.), and the total-protein was measured using a Bicinchoninic (BCA) assay kit (Sigma-Aldrich Co.). The proteins were separated by SDS-PAGE and transferred to a membrane using a Mini-PROTEAN Tetra Cell and Mini Trans-Blot Electrophoretic Transfer Cell System (Bio-Rad Laboratories, Hercules, CA, USA). The membranes were blocked with skim milk (5%) for 1 hour, and immunoblotted with antibodies against NLRP3, IL-1β, mature IL-1β (Cell Signaling Technology Inc., Danvers, MA, USA), caspase 1 and β-actin (Santa Cruz Biotechnology Inc., Dallas, TX, USA) at 4° C. overnight. After washing with PBS supplemented with 0.1% of Tween 20, the membranes were treated with a peroxidase-conjugated anti-rabbit or anti-mouse IgG antibody (1:1,000) for 2 hours at room temperature. The SuperSignal West Pico ECL solution (Thermo Fisher Scientific, Inc.) was used to detect protein bands that were visualized on a ChemiDocm Touch Imaging System (Bio-Rad Laboratories).
For orientation: A western blot detects proteins with antibodies after separation by electrophoresis.

In a further data set the target is T1, CYP1A2 (Homo sapiens, UniProt P05177).
T1 construct: pooled human liver microsomes were assayed at 0.25 mg/mL concentration; from tissue; host or cells: pooled human liver microsomes
T1 sequence (P05177 1-516): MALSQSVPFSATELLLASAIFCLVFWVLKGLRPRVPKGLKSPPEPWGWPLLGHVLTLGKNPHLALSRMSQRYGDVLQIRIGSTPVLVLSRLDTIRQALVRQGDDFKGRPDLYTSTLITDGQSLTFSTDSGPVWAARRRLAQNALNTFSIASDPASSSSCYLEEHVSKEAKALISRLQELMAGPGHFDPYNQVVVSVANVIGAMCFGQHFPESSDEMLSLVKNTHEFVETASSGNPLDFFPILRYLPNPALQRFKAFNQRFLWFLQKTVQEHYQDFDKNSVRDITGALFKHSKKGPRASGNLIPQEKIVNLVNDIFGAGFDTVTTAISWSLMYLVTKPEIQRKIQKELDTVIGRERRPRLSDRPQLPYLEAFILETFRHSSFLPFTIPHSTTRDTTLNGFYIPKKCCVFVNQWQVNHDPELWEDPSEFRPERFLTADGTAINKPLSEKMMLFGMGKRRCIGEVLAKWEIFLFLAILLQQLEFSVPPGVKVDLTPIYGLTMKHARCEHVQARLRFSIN
Kind of data set: Cytochrome P450 inhibition. The data set is classed as in vitro ADME. As to conditions: probe phenacetin (O-deethylation), pooled human liver microsomes 0.25 mg/mL, read-out: CYP inhibition (% at 10 μM) 1A2. As to the method:
(§1) The inhibitory effects of NIC7 and NIC7w on the metabolism of the five major P450 probe substrates were evaluated using a previously reported method (S. Seino, Diabetologia 55, 2096-2108 (2012)) with minor modifications. A cocktail of substrates (phenacetin O-deethylase, tolbutamide 4-hydroxylase, mephenytoin 4-hydroxylase, dextromethorphan O-demethylase, and midazolam 1′-hydroxylase) was used for five major P450 enzymes, CYP1A2, CYP2C9, CYP2C19, CYP2D6, and CYP3A4, respectively. NIC7 and NIC7w were prepared at a concentration of 10 mM in DMSO and dissolved in methanol at a concentration of 1 mM. In all experiments, the final concentration of an organic solvent (methanol) for cocktail incubation was set at 1.0% (v/v). Both NIC7 and NIC7w were used at 10 μM, and pooled human liver microsomes were assayed at 0.25 mg/mL concentration. The substrate cocktail solution was incubated with the microsomes for 5 min at 37° C. The reaction was initiated by adding an NADPH-generating system (the same as described in Examples 1-5) at 37° C. and 1300 rpm. The reaction was stopped at 10 min by the addition of cold acetonitrile containing carbamazepine as an internal standard at 20 ng/mL. After vortexing and centrifugation, the supernatant was analyzed with LC-MS/MS. All microsomal incubations were performed in triplicate.

The next data set addresses T2, CYP2D6 (Homo sapiens, UniProt P10635).
T2 construct: pooled human liver microsomes were assayed at 0.25 mg/mL concentration; from tissue; host or cells: pooled human liver microsomes
Kind of data set: Cytochrome P450 inhibition. The data set is classed as in vitro ADME. To be noted: probe dextromethorphan (O-demethylation), pooled human liver microsomes 0.25 mg/mL, read-out: CYP inhibition (% at 10 μM) 2D6. The procedure:
as §1
Background: Liver microsomes are vesicles of endoplasmic reticulum, rich in cytochrome P450 enzymes.

In another data set the target is T3, CYP2C19 (Homo sapiens, UniProt P33261).
T3 construct: pooled human liver microsomes were assayed at 0.25 mg/mL concentration; from tissue; host or cells: pooled human liver microsomes
T3 sequence (P33261 whole entry): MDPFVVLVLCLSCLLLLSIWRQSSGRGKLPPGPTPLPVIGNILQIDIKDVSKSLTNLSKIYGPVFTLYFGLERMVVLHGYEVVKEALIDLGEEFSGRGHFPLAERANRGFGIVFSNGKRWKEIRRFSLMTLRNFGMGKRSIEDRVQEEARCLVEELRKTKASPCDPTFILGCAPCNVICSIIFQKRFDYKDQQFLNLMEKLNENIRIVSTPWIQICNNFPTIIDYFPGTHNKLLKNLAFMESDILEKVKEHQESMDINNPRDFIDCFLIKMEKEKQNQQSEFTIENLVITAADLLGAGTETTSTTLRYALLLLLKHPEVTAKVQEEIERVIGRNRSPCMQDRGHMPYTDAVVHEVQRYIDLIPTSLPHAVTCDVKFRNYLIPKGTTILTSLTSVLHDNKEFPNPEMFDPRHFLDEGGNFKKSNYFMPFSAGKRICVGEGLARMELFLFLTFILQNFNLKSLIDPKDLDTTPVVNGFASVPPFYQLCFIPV
Kind of data set: Cytochrome P450 inhibition. The data set is classed as in vitro ADME. To be noted: probe mephenytoin (4-hydroxylation), pooled human liver microsomes 0.25 mg/mL, read-out: CYP inhibition (% at 10 μM) 2C19. As to the method: as §1

Another data set has as its target T4, CYP3A4 (Homo sapiens, UniProt P08684).
T4 construct: pooled human liver microsomes were assayed at 0.25 mg/mL concentration; from tissue; host or cells: pooled human liver microsomes
Kind of data set: Cytochrome P450 inhibition. The data set is classed as in vitro ADME. To be noted: probe midazolam (1′-hydroxylation), pooled human liver microsomes 0.25 mg/mL, read-out: CYP inhibition (% at 10 μM) 3A4. The procedure:
as §1

For another data set, the target named is T5, CYP2C9 (Homo sapiens, UniProt P11712).
T5 construct: pooled human liver microsomes were assayed at 0.25 mg/mL concentration; from tissue; host or cells: pooled human liver microsomes
T5 sequence (P11712 whole entry): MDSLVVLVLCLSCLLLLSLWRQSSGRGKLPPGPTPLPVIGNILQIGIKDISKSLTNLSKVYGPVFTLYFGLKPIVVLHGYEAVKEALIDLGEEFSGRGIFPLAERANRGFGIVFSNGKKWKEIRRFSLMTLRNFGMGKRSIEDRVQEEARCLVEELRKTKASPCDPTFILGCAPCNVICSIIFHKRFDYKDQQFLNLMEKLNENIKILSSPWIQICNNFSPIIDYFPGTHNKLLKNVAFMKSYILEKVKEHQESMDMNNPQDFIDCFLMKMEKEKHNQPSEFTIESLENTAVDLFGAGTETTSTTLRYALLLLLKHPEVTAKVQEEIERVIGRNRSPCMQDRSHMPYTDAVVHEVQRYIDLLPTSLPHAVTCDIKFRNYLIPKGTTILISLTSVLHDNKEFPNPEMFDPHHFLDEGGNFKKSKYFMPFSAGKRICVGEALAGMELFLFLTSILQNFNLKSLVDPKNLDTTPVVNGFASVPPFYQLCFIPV
Kind of data set: Cytochrome P450 inhibition. The data set is classed as in vitro ADME. As to the method: as §1

T4 sequence (P08684 whole entry): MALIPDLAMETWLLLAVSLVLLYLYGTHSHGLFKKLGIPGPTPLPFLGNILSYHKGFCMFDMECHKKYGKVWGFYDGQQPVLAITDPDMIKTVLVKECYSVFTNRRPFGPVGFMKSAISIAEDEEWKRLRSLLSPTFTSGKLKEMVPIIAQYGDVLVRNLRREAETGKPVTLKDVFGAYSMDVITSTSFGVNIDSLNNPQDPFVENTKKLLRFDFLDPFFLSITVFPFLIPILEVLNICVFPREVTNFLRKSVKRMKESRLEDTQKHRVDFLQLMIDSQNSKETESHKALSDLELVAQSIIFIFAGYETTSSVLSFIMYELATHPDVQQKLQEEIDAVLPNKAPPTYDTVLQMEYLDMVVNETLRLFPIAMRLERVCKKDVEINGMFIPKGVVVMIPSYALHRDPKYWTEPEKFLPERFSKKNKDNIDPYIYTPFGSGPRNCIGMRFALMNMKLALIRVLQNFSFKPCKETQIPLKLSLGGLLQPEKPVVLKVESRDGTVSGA
T2 sequence (P10635 whole entry): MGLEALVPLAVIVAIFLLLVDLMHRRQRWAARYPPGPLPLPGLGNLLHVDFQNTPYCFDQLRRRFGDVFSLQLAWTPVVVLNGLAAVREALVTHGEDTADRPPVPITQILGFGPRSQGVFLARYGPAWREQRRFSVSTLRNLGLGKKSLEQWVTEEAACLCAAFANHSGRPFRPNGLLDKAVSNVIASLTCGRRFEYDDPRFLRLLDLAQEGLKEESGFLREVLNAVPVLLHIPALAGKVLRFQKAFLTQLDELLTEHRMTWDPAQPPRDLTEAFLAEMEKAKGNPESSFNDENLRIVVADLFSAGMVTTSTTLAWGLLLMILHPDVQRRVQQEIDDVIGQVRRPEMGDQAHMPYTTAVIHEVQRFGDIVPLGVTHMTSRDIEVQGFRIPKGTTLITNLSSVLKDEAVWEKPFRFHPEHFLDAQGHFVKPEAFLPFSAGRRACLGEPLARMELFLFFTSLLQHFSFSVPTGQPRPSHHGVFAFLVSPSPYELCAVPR

The term inhibition denotes how much of the control response was suppressed. Consider `CC(=O)c1cccc(NC(=O)Nc2ccc3sc(NS(=O)(=O)c4ccc(C)cc4)nc3c2)c1` [NIC7, N-(5-(3-(3-acetylphenyl)ureido)benzo[d]thiazol-2-yl)-4-methylbenzenesulfonamide], for which the “inhibition of IL-1β and caspase 1 (Western blot)” value in data set [1] was “inhibition”. The inhibition at 10 min, 10 µM at CYP1A2 was below 1%; on CYP2D6, 9.8%; at CYP2C19, below 1%; at CYP3A4 it was below 1%; at CYP2C9 (probe tolbutamide (4-hydroxylation), pooled human liver microsomes 0.25 mg/mL, tolbutamide, read-out: CYP inhibition (% at 10 μM) 2C9), 34.2%. The “CYP enzyme selectivity of inhibition” value on CYP2C9 (five P450 enzymes, 10 μM) was “acted mainly on CYP2C9 enzyme and hardly acted on other types of CYP enzymes”.
